Reference: patent US8853392B2, “Benzamide mGluR5 positive allosteric modulators and methods of making and using same” (Vanderbilt University, priority 2007, dated 2014)
Several values for one entry are separate records, joined by “and”; a condition that tells them apart may be missing. Identical values can stand only once. Entries after “also recorded” stand apart in the source; their conditions may differ. Like-named read-outs stand apart in the source and are kept apart here.

Experiments:
[1] = test system: hippocampal long term potentiation (LTP); assay: hippocampal long term potentiation (LTP); assay type: cell-based; conditions: after applying a stimulus to the synapse, FIG. 17
From the text: (§1) mGluR5 potentiation has also been linked to improvement of cognition (Kinney, G. G.; O'Brien, Lemaire, W.; Burno, M.' Bickel, D. J.; Clements, M. K.; Wisnoski, D. D.; Lindsley, C. W.; Tiller, P. R.; Smith, S.; Jacobson, M. A.; Sur, C.; Duggan, M. E.; Pettibone, D. J.; Williams, Jr., D. W. ‘A novel selective allosteric modulator of metabotropic glutamate receptor subtype 5 (mGluR5) has an antipsychotic profile in rat behavioral models’ J. Pharmacol. Exp. Therapeut. 2005, 313(1), 199; Lindsley, C. W.; Wisnoski, D. D.; Leister, W. H.; O'Brien, J. A.; Lemiare, W.; Williams, Jr., D. L.; Burno, M.; Sur, C.; Kinney, G. G.; Pettibone, D. J.; iller, P. R.; Smith, S.; Duggan, M. E.; Hartman, G. D.; Conn, P. J.; Huff, J. R. ‘Discovery of positive allosteric modulators for the metabotropic glutamate receptor subtype from a series of N-(1,3-Diphenyl-1H-pyrazol-5-yl)benzamides that potentiate receptor function in vivo’ J. Med. Chem. 2004, 47, 5825; Epping-Jordan M. P., Nayak, S., Derouet, F., Dominguez, H., Bessis A. S., Le Poul E., Ludwig B. L. Mutel V., Poli S. M. and Rocher J. P. In Vivo Characterization of mGluR5 Positive Allosteric Modulators as Novel Treatments for Schizophrenia and Cognitive Dysfunction Neuropharmacology 2005, 49, 243.). […]

[2] = target: T1, rat mGluR5 (Rattus norvegicus, UniProt P31424); assay: potentiation of mGluR5 response to glutamate, Ca2+ fluorescence (FDSS) in HEK cells transfected with rat mGluR5; assay type: cell-based
T1 construct: expressed in transfected cells; host or cells: human embryonic kidney (HEK) cells
How it was run: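 HEK cells expressing rat mGluR5, loaded with 2 μM fluo-4 AM; buffer HBSS, 20 mM HEPES, 2.5 mM probenecid, pH 7.4, 0.1% DMSO final. Compound added 5 min before glutamate, typically at EC20, with Ca2+ fluorescence read over 1 min and normalized to maximal agonist response. Potentiator EC50 from curve fitting; agonist curve shifts measured at fixed compound concentrations.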

[3] = test system: amphetamine-induced hyperlocomotion; assay: reversal of amphetamine-induced hyperlocomotion; assay type: in vivo, male Sprague-Dawley rats; conditions: rats, i.p., FIG. 8-10, 13, 14
Procedure: For example, compounds of the present invention reverse amphetamine-induced hyperlocomotion in male Sprague-Dawley rats at doses ranging from 1 to 100 mg/kg i.p. Data for three example compounds follow:
Locomotor activity can be assessed as mean distance traveled (cm) in standard 16×16 photocell testing chambers measuring 43.2 cm (L)×43.2 cm (W)×30.5 cm (H) (Med Associates, St. Albans, Vt.). Animals can be habituated to individual activity chambers for at least 60 min prior to drug administration. Following administration of appropriate drugs or vehicle, activity can be recorded for a 3 hr time period. Data can be expressed as the mean (±SEM) distance traveled recorded in 10 min intervals over the test period. The data can be analyzed using repeated measures analysis of variance (ANOVA) followed by post-hoc testing using Tukey's HSD test, when appropriate. A difference can be considered significant when p≦0.05.

[4] = test system: prepulse inhibition (PPI); assay: reversal of amphetamine-induced prepulse inhibition (PPI) of startle; assay type: in vivo, rats; conditions: FIG. 15, 16; four prepulse intensities above background
From the text: Schizophrenic patients show decreased measures of sensorimotor gating, such as prepulse inhibition (PPI) of startle, and preclinical models of PPI in rats are routinely used to predict antipsychotic efficacy. In fact, PPI can be measured in humans and rats employing identical stimulus parameters yielding similar responses (Braff, D. L.; Geyer, M. A.; Swerdlow, N. R. ‘Human studies of prepulse inhibition of startle: normal subjects, patient groups, and pharmacological studies.’ Psychopharmacology 2001, 156(2-3), 234-258; Braff, D. L.; Geyer, M. A. ‘Sensorimotor gating and schizophrenia. Human and animal model studies.’ Archives of general psychiatry 1990, 47(2), 181-8; Braff, D. L.; Geyer, M. A.; Swerdlow, N. R. ‘Human studies of prepulse inhibition of startle: normal subjects, patient groups, and pharmacological studies.’ Psychopharmacology 2001, 156(2-3), 234-258; Weiss, I. C.; Feldon, J. ‘Environmental animal models for sensor motor gating deficiencies in schizophrenia: a review.’ Psychopharmacology 2001, 156(2-3), 305-326; Thomsen, M.; Woertwein, G.; Fink-Jensen, A.; Woldbye, D. P. D.; Wess, J.; Caine, S. B. ‘Decreased prepulse inhibition and increased sensitivity to muscarinic, but not dopaminergic drugs in M5 muscarinic acetylcholine receptor knockout mice.’ Psychopharmacology 2007, 192(1), 97-110.). […]

[5] = test system: Novel Object Recognition (NOR); assay: Novel Object Recognition (NOR); assay type: in vivo; conditions: FIG. 11
From the text: as §1

[6] = HEK293, read-out: % Glu Max, maximum extent of potentiation, normalized to maximal response to glutamate; SAR tables
[7] = Table 1, EC50 for potentiating the mGluR5 receptor; unit inferred; read-out: EC50
[8] = in vitro potency; read-out: In vitro
[9] = HEK293; maximum extent of potentiation, normalized to maximal response to glutamate; SAR tables; read-out: % Glu Max
[10] = potentiation of glutamate response, HEK cells transfected with rat mGluR5; SAR tables; read-out: EC50

T1 sequence (P31424 21-1203): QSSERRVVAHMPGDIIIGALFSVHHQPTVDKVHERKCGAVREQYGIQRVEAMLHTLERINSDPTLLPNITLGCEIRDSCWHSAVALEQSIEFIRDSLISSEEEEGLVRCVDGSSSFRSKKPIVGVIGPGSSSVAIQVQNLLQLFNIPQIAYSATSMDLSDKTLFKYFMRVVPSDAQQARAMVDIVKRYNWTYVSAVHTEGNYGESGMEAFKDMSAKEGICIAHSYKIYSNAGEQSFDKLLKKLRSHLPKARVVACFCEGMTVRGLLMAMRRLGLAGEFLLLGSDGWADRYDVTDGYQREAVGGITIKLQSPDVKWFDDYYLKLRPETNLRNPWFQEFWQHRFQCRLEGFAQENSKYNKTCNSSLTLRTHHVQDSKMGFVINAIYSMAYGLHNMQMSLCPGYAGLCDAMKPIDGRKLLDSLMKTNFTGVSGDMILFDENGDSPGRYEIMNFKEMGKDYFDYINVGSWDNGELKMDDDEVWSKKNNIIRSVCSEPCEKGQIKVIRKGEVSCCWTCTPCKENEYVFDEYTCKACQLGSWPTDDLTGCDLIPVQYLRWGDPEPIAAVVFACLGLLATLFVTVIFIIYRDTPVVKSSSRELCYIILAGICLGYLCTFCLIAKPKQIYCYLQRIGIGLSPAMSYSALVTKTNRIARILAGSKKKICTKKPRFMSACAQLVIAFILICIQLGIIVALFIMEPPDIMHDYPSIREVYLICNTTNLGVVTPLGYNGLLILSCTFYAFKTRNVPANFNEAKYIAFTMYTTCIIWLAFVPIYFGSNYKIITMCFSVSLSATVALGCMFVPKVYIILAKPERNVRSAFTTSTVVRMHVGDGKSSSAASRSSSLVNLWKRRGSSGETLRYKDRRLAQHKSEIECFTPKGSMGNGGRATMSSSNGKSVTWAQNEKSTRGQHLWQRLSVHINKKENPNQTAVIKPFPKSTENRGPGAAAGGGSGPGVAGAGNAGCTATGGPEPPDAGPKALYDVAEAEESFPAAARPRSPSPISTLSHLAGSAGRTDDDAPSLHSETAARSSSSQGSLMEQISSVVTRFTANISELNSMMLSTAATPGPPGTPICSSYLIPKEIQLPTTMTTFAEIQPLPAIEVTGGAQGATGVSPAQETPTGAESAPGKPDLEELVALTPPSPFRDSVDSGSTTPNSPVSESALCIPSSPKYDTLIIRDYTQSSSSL

For `O=C(Nc1cc(-c2ccccc2)nn1-c1ccccc1)c1ccc([N+](=O)[O-])cc1` [VU29], the “increase in strength of synaptic connections (hippocampal LTP)” value [1] was “induced a robust increase in synaptic connections”.

In the case of `CCCC1(O)CCN(C(=O)c2ccc(C#Cc3ccccc3)cc2)CC1` [Compound VU60/C109B2, (4-hydroxy-4-propylpiperidin-1-yl)(4-(phenylethynyl)phenyl)methanone], the Emax ([2]; HEK293, read-out: % Glu Max) is reported as 90%, the Emax [2, 6] is reported as 90.1% and the EC50 [2, 7] is reported as 1610 nM. For the same compound, the EC50 [2, 8] was 1250 nM, the “reversal of amphetamine-induced hyperlocomotion” value [3] was “efficacy in reversing amphetamine-induced hyperlocomotion” and the “reversal of amphetamine-induced hyperlocomotion” value ([3]; listed as VU60) was “in vivo efficacy”.

`O=C(c1ccc(F)cc1)N1CCC[C@H](c2nc(-c3ccc(F)cc3)no2)C1` [ADX47273] was tested, and the “increase in strength of synaptic connections (hippocampal LTP)” value [1] was “induced a robust increase in synaptic connections”, the “reversal of amphetamine-induced prepulse inhibition (PPI)” value [4] was “affords similar results; also recorded: reversal of amphetamine-induced prepulse inhibition (PPI)” and the “improvement in Novel Object Recognition (NOR)” value [5] was “robust and significant improvement in NOR; also recorded: cognitive improvement”. The “reversal of amphetamine-induced hyperlocomotion” value [3] was “afforded similar results; also recorded: reversal of amphetamine-induced hyperlocomotion”.

`O=C(c1ccc(C#Cc2ccccc2)cc1)N1CCC(CO)CC1` [Compound VU14/C104B2, (4-(hydroxymethyl)piperidin-1-yl)(4-(phenylethynyl)phenyl)methanone] was tested, and the Emax ([2]; HEK293; read-out: % Glu Max) was 41%, the EC50 [2, 7] was 32.7 nM and 43.4 nM and the EC50 [2, 8] was 29.6 nM. The “reversal of amphetamine-induced hyperlocomotion” value [3] was “efficacy in reversing amphetamine-induced hyperlocomotion; also recorded: in vivo efficacy”.

For “(4-hydroxypiperidin-1-yl)(4-(phenylethynyl)phenyl)methanone [Compound VU13]”, the EC50 [2, 7] was 28.3 nM, the “reversal of amphetamine-induced hyperlocomotion” value ([3]; listed as VU000013) was “affords similar results” and the “reversal of amphetamine-induced hyperlocomotion” value ([3]; listed as VU00013) was “reversal of amphetamine-induced hyperlocomotion”.

Work on `O=C(c1ccc(C#Cc2ccccc2)cc1)N1CCC(O)CC1` [Compound VU13, (4-hydroxypiperidin-1-yl)(4-(phenylethynyl)phenyl)methanone] yielded an Emax ([2]; HEK293; read-out: % Glu Max) of 50%, an EC50 [2, 7] of 14.3 nM and an EC50 [2, 8] of 13.6 nM. The “reversal of amphetamine-induced hyperlocomotion” value [3] was “efficacy in reversing amphetamine-induced hyperlocomotion; also recorded: in vivo efficacy”.

`CC(C)(C)CCNC(=O)c1ccc(C#Cc2ccccc2)cc1` [N-(3,3-dimethylbutyl)-4-(phenylethynyl)benzamide] gave an EC50 [2, 7] of 19.4 nM.

Compound `O=C(c1ccc(C#Cc2ccc(F)c(F)c2)cc1)N1CC(O)C1` [Compound 20p, (4-((3,4-difluorophenyl)ethynyl)phenyl)(3-hydroxyazetidin-1-yl)methanone] has an Emax [2, 9] of 88%, an EC50 [2, 7] of 387 nM and an EC50 [2, 10] of 314 nM.

For `O=C(c1ccc(C#Cc2ccccc2)cc1)N1CCC(NC2CCC2)CC1` [(4-(cyclobutylamino)piperidin-1-yl)(4-(phenylethynyl)phenyl)methanone], the EC50 [2, 7] was 212 nM.

`O=C(c1ccc(C#Cc2cccc(C(F)(F)F)c2)cc1)N1CCC(O)CC1` [Compound 19i, (4-hydroxypiperidin-1-yl)(4-((3-(trifluoromethyl)phenyl)ethynyl)phenyl)methanone] showed an Emax [2, 9] of 68%, an EC50 [2, 7] of 2210 nM and an EC50 [2, 10] of 2060 nM.

`O=C(NC1CCc2ccccc21)c1ccc(C#Cc2ccccc2)cc1` (stereo not drawn) [N-(2,3-dihydro-1H-inden-1-yl)-4-(phenylethynyl)benzamide] showed an EC50 [2, 7] of 146 nM.

`COc1ccc(C2(O)CCN(C(=O)c3ccc(C#Cc4ccccc4)cc3)CC2)cc1` [Compound 7g] gave an Emax [2, 6] of 91% and an EC50 [2, 10] of 2450 nM.

In the case of `O=C(c1ccc(-c2nc(-c3ccc(F)cc3)no2)cc1)N1CCN(c2ccncc2)CC1` [(4-(3-(4-fluorophenyl)-1,2,4-oxadiazol-5-yl)phenyl)(4-(pyridin-4-yl)piperazin-1-yl)methanone], the EC50 [2, 7] is reported as 4210 nM.

Work on `C[C@H](NC1CCN(C(=O)c2ccc(C#Cc3ccccc3)cc2)CC1)C1CCCCC1` [(S)-(4-(1-cyclohexylethylamino)piperidin-1-yl)(4-(phenylethynyl)phenyl)methanone] yielded an EC50 [2, 7] of 129 nM.

`CN(C)CCNC(=O)c1ccc(C#Cc2ccccc2)cc1` [N-(2-(dimethylamino)ethyl)-4-(phenylethynyl)benzamide] was tested, and the EC50 [2, 7] was 2990 nM.

Work on `CC1(O)CN(C(=O)c2ccc(C#Cc3ccccc3)cc2)C1` [Compound 9b, (3-hydroxy-3-methylazetidin-1-yl)(4-(phenylethynyl)phenyl)methanone] yielded an Emax [2, 9] of 82%, an EC50 [2, 7] of 119 nM and an EC50 [2, 10] of 89 nM.
